US20080200404A1, “Novel Antimalarial 9A-Carbamoyl-Aminoalkyl and 9A-Thiocarbamoyl-Aminoalkyl Azalides” (priority 2005, published 2008)
≈ marks a conversion by molar mass, not a printed value.

Tests used:
[1] = test system: Plasmodium falciparum clone CDC/Sierra Leone I (D-6); experiment: In vitro antimalarial [3H]-hypoxanthine incorporation serial dilution assay, D6; type: cell-based; conditions: P. falciparum D6, 72 hours exposure; for IC50: Plasmodium falciparum, D6, 72 h, read-out: IC50 D6
Procedure, shortened: (§1)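 Blood-stage cultures in RPMI-1640 with 6% A+ erythrocytes and human plasma or ALBUMAX, 37° C under 5% CO2/5% O2. Compounds in two-fold dilutions over 11 concentrations; [3H]-hypoxanthine incorporation after 72 h total incubation, CPM normalised to untreated parasite controls; IC50 by non-linear logistic fit.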

[2] = test system: Plasmodium falciparum TM91C235; experiment: In vitro antimalarial [3H]-hypoxanthine incorporation assay, TM91C235; type: cell-based; conditions: P. falciparum TM91C235 (multiple drug resistant isolate), 72 hours exposure; for IC50: Plasmodium falciparum
Procedure, shortened: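 Multidrug-resistant P. falciparum TM91C235 was run at 0.4% parasitemia and 1% hematocrit in folate/PABA-free RPMI-1640 with ALBUMAX, at 37° C under 5% CO2/5% O2. Compound was tested in duplicate at 25,000, 2,500 and 25 ng/ml, preexposed 48 h, then [3H]-hypoxanthine was added (72 h total). Counts are expressed relative to untreated parasite controls.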

[3] = test system: Plasmodium falciparum clone CDC/Indochina III (W-2); experiment: In vitro antimalarial [3H]-hypoxanthine incorporation serial dilution assay, W2; type: cell-based; conditions: P. falciparum W2, 72 hours exposure; for IC50: Plasmodium falciparum
Procedure, shortened: as §1

[4] = test system: Plasmodium falciparum; conditions: non-immune patients, as compared to controls; cited from earlier work
[5] = test system: Plasmodium cynomolgi; conditions: rhesus monkey; cited from earlier work
[6] = test system: Plasmodium vivax; conditions: non-immune patients, as compared to controls; cited from earlier work
[7] = test system: Plasmodium berghei; conditions: cited from earlier work
[8] = test system: Plasmodium yoelli nigeriensis; conditions: cited from earlier work

Q: For `CC[C@H]1OC(=O)[C@H](C)[C@@H](O[C@H]2C[C@@](C)(OC)[C@@H](O)[C@H](C)O2)[C@H](C)[C@@H](O[C@@H]2O[C@H](C)C[C@H](N(C)C)[C@H]2O)[C@](C)(O)C[C@@H](C)CN(CCCNC(=S)NC2CC3C=CC2C3)[C@H](C)[C@@H](O)[C@]1(C)O.O=CO` (stereo partly drawn) [Example 151], which IC50 [1] is on record?
A: 0.299 µg/mL

Q: And the IC50 [2]?
A: 0.181 µg/mL

Q: And the IC50 [3]?
A: 0.171 µg/mL

Q: Which results are given for `CCNC(=O)NCCN1C[C@H](C)C[C@@](C)(O)[C@H](O[C@@H]2O[C@H](C)C[C@H](N(C)C)[C@H]2O)[C@@H](C)[C@H](O[C@H]2C[C@@](C)(OC)[C@@H](O)[C@H](C)O2)[C@@H](C)C(=O)O[C@H](CC)[C@@](C)(O)[C@H](O)[C@H]1C` [Example 158, 9-Deoxo-9-dihydro-9a-[N′-(ethyl)carbamoyl-β-amino-ethyl]-9a-aza-9a-homoerythromycin A]?
A: IC50 [1]: 0.167 µg/mL (≈ 0.197 µM); IC50 [2]: 0.103 µg/mL (≈ 0.121 µM); IC50 [3]: 0.405 µg/mL (≈ 0.476 µM)

Q: With `CC[C@H]1OC(=O)[C@H](C)[C@@H](O[C@H]2C[C@@](C)(OC)[C@@H](O)[C@H](C)O2)[C@H](C)[C@@H](O[C@@H]2O[C@H](C)C[C@H](N(C)C)[C@H]2O)[C@](C)(O)C[C@@H](C)CN(CCCN(CCC(N)=O)C(=S)NCCc2ccccc2)[C@H](C)[C@@H](O)[C@]1(C)O` [Example 166, 9-Deoxo-9-dihydro-9a-{N′-(β-amidoethyl)-N′-[β-(phenylethyl)thiocarbamoyl]-γ-aminopropyl}-9a-aza-9a-homoerythromycin A] as the molecule, how does the IC50 [1] read?
A: 0.458 µg/mL (≈ 0.446 µM)

Q: And the IC50 [2]?
A: 0.161 µg/mL (≈ 0.157 µM)

Q: And the IC50 [3]?
A: 0.23 µg/mL (≈ 0.224 µM)

Q: What does the source list for `CC[C@H]1OC(=O)[C@H](C)[C@@H](O[C@H]2C[C@@](C)(OC)[C@@H](O)[C@H](C)O2)[C@H](C)[C@@H](O[C@@H]2O[C@H](C)C[C@H](N(C)C)[C@H]2O)[C@](C)(O)C[C@@H](C)CN(CCCN(CCC(N)=O)C(=O)Nc2ccc(Cl)cc2Cl)[C@H](C)[C@@H](O)[C@]1(C)O` [Example 169, 9-Deoxo-9-dihydro-9a-[N′-(β-amidoethyl)-N′-(2,4-dichlorophenyl)carbamoyl-γ-aminopropyl]-9a-aza-9a-homoerythromycin A]?
A: IC50 D6 [1]: 0.2266 µg/mL (≈ 0.216 µM); IC50 TM91C235 [2]: 0.1475 µg/mL (≈ 0.14 µM); IC50 W2 [3]: 0.188 µg/mL (≈ 0.179 µM)

Q: With `CC[C@H]1OC(=O)[C@H](C)[C@@H](O[C@H]2C[C@@](C)(OC)[C@@H](O)[C@H](C)O2)[C@H](C)[C@@H](O[C@@H]2O[C@H](C)C[C@H](N(C)C)[C@H]2O)[C@](C)(O)C[C@@H](C)CN(C)[C@H](C)[C@@H](O)[C@]1(C)O` [azithromycin] as the molecule, how does the “prophylactic efficacy for Plasmodium falciparum” value [4] read?
A: 71.6%

Q: And the “efficacy in monkey model” value [5]?
A: active

Q: And the “prophylactic efficacy for Plasmodium vivax” value [6]?
A: 98.9%

Q: With midecamycinin as the molecule, how does the “activity in mouse model” value [7] read?
A: active

Q: What about the “activity in mouse model” value [8] of the same molecule?
A: active

Q: And the “efficacy in monkey model” value [5]?
A: no efficacy
